For the assay, the target named is hT2R8 (Homo sapiens (Human), UniProt Q9NYW2). As to the kind of experiment: hT2R8 antagonist high-throughput FLIPR assay, stable cell line with G16g44, agonist andrographolide. In kind it is cell-based. Summed up: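 HEK293 cells stably co-expressing hT2R8 and chimeric G16g44, read on FLIPR. Test compounds added together with andrographolide (200 μM), which drives the receptor to 70–80% of maximal activity; antagonism seen as reduced agonist response.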

The mark [1] stands for this setting: read-out: IC50 on hT2R8 bitter receptor.
Where [2] appears, read: table after Example 10-97, read-out: hT2R8 IC50.

SMILES strings stand for the structures. Like-named read-outs stand apart in the source and are kept apart here.

The record followed here is patent publication US9247759B2, “Identification of human T2R receptors that respond to bitter compounds that elicit the bitter taste in compositions, and the use thereof in assays to identify compounds that inhibit (block) bitter taste in compositions and use thereof” (SENOMYX, INC., priority 2007, dated 2016).

In general, IC50 refers to the concentration that gives 50% inhibition.

hT2R8, sequence (Q9NYW2 whole entry): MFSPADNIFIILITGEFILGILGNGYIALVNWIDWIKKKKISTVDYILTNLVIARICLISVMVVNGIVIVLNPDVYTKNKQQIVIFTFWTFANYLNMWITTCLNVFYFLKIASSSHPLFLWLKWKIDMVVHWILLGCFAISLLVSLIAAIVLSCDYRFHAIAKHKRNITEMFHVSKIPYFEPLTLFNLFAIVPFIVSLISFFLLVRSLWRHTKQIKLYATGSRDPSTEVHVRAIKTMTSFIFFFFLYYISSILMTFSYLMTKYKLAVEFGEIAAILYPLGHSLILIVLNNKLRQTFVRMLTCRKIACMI

Consider `Cc1noc(C)c1Cn1cc(N2C(=O)NC(CC(=O)NCc3ccccc3)C2=O)cn1` (stereo not drawn) [Example 10-49, N-benzyl-2-(1-(1-((3,5-dimethylisoxazol-4-yl)methyl)-1H-pyrazol-4-yl)-2,5-dioxoimidazolidin-4-yl)acetamide], for which the IC50 was 1300 nM under setting [1] and 1330 nM under setting [2].
For `COc1cccc(CNC(=O)CC2NC(=O)N(c3cnn(Cc4c(C)noc4C)c3)C2=O)c1` (stereo not drawn) [Example 10-50, 2-(1-(1-((3,5-dimethylisoxazol-4-yl)methyl)-1H-pyrazol-4-yl)-2,5-dioxoimidazolidin-4-yl)-N-(3-methoxybenzyl)acetamide], the IC50 under setting [1] was determined as 1700 nM and the IC50 under setting [2] is 1770 nM.
For `Cc1noc(C)c1Cn1cc(N2C(=O)CN(C)C2=O)cn1` [Example 10-51, 3-(1-((3,5-dimethylisoxazol-4-yl)methyl)-1H-pyrazol-4-yl)-1-methylimidazolidine-2,4-dione], the IC50 runs as follows: under setting [1], 580 nM; under setting [2], 966 nM.
With `Cc1noc(C)c1Cn1cc(N2C(=O)N(C)C(C)(C)C2=O)cn1` [Example 10-52, 3-(1-((3,5-dimethylisoxazol-4-yl)methyl)-1H-pyrazol-4-yl)-1,5,5-trimethylimidazolidine-2,4-dione], the IC50 runs as follows: under setting [1], 800 nM; under setting [2], 810 nM.
For `Cc1noc(C)c1Cn1cc(N2C(=O)CN(Cc3ccccc3)C2=O)cn1` [Example 10-53, 1-benzyl-3-(1-((3,5-dimethylisoxazol-4-yl)methyl)-1H-pyrazol-4-yl)imidazolidine-2,4-dione] the same measures were 90 nM and 257 nM.
Take `Cc1noc(C)c1Cn1cc(N2C(=O)CN(Cc3ccccn3)C2=O)cn1` [Example 10-54, 3-(1-((3,5-dimethylisoxazol-4-yl)methyl)-1H-pyrazol-4-yl)-1-(pyridin-2-ylmethyl)imidazolidine-2,4-dione]: the IC50 turned out to be 680 nM under setting [1] and 609 nM under setting [2].
For `Cc1noc(C)c1CN1CC(=O)N(c2cnn(Cc3c(C)noc3C)c2)C1=O` [Example 10-55, 1-((3,5-dimethylisoxazol-4-yl)methyl)-3-(1-((3,5-dimethylisoxazol-4-yl)methyl)-1H-pyrazol-4-yl)imidazolidine-2,4-dione] the same measures were 40 nM and 479 nM.
For `COc1cccc(CC2NC(=O)N(c3cnn(Cc4c(C)noc4C)c3)C2=O)c1` (stereo not drawn) [Example 10-56, 3-(1-((3,5-dimethylisoxazol-4-yl)methyl)-1H-pyrazol-4-yl)-5-(3-methoxybenzyl)imidazolidine-2,4-dione] the same measures were 130 nM and 131 nM.
For `Cc1noc(C)c1Cn1cc(N2C(=O)NC(CC3CCCCC3)C2=O)cn1` (stereo not drawn) [Example 10-57, 5-(cyclohexylmethyl)-3-(1-((3,5-dimethylisoxazol-4-yl)methyl)-1H-pyrazol-4-yl)imidazolidine-2,4-dione] the same measures were 960 nM and 962 nM.
Consider `Cc1noc(C)c1Cn1cc(N2C(=O)NC(CC3CCCC3)C2=O)cn1` (stereo not drawn) [Example 10-58, 5-(cyclopentylmethyl)-3-(1-((3,5-dimethylisoxazol-4-yl)methyl)-1H-pyrazol-4-yl)imidazolidine-2,4-dione], for which the IC50 is, setting by setting: under setting [1], 310 nM; under setting [2], 316 nM.
With `Cc1noc(C)c1Cn1cc(N2C(=O)NC(Cc3ccc(O)cc3)C2=O)cn1` (stereo not drawn) [Example 10-59, 3-(1-((3,5-dimethylisoxazol-4-yl)methyl)-1H-pyrazol-4-yl)-5-(4-hydroxybenzyl)imidazolidine-2,4-dione], the IC50 stood at 330 nM under setting [1] and 327 nM under setting [2].
With `Cc1noc(C)c1Cn1cc(N2C(=O)NC(Cc3ccc(O)c(O)c3)C2=O)cn1` (stereo not drawn) [Example 10-60, 5-(3,4-dihydroxybenzyl)-3-(1-((3,5-dimethylisoxazol-4-yl)methyl)-1H-pyrazol-4-yl)imidazolidine-2,4-dione], the IC50 by setting is: under setting [1], 510 nM; under setting [2], 513 nM.
Consider `Cc1noc(C)c1Cn1cc(N2C(=O)NC(CC(C)C)C2=O)cn1` (stereo not drawn) [Example 10-61, 3-(1-((3,5-dimethylisoxazol-4-yl)methyl)-1H-pyrazol-4-yl)-5-isobutylimidazolidine-2,4-dione], for which the IC50 under setting [1] is 1000 nM and the IC50 under setting [2] is 912 nM.
Turning to `Cc1noc(C)c1Cn1cc(N2C(=O)NC(C(C)C)C2=O)cn1` (stereo not drawn) [Example 10-62, 3-(1-((3,5-dimethylisoxazol-4-yl)methyl)-1H-pyrazol-4-yl)-5-isopropylimidazolidine-2,4-dione], the IC50 under setting [1] was found to be 1100 nM and the IC50 under setting [2] is 1440 nM.
On to `Cc1noc(C)c1Cn1cc(N2C(=O)N/C(=C\c3ccccc3)C2=O)cn1` [Example 10-63, (Z)-5-benzylidene-3-(1-((3,5-dimethylisoxazol-4-yl)methyl)-1H-pyrazol-4-yl)imidazolidine-2,4-dione], for which the IC50 under setting [1] stood at 340 nM.
For the compound `Cc1noc(C)c1Cn1cc(-n2c(=O)n(C)n(CCc3ccc(F)cc3)c2=O)cn1` [Example 10-66, 4-(1-((3,5-dimethylisoxazol-4-yl)methyl)-1H-pyrazol-4-yl)-1-(4-fluorophenethyl)-2-methyl-1,2,4-triazolidine-3,5-dione], the IC50 is, setting by setting: under setting [1], 10 nM; under setting [2], 12 nM.
Consider `Cc1noc(C)c1Cn1cc(-n2c(=O)n(C)n(CCOc3ccccc3)c2=O)cn1` [Example 10-67, 4-(1-((3,5-dimethylisoxazol-4-yl)methyl)-1H-pyrazol-4-yl)-1-methyl-2-(2-phenoxyethyl)-1,2,4-triazolidine-3,5-dione], for which the IC50 under setting [1] amounted to 31 nM.
Take `Cc1noc(C)c1Cn1cc(-n2c(=O)n(C)n(C)c2=O)cn1` [Example 10-69, 4-(1-((3,5-dimethylisoxazol-4-yl)methyl)-1H-pyrazol-4-yl)-1,2-dimethyl-1,2,4-triazolidine-3,5-dione]: the IC50 amounted to 600 nM under setting [1] and 707 nM under setting [2].
Regarding `Cc1noc(C)c1Cn1cc(-n2c(=O)n(Cc3ccccc3)n(Cc3ccccc3)c2=O)cn1` [Example 10-70, 1,2-dibenzyl-4-(1-((3,5-dimethylisoxazol-4-yl)methyl)-1H-pyrazol-4-yl)-1,2,4-triazolidine-3,5-dione], the IC50 runs as follows: under setting [1], 800 nM; under setting [2], 1800 nM.
In the case of `Cc1noc(C)c1Cn1cc(N2C(=O)CN(Cc3cccc(CO)n3)C2=O)cn1` [Example 10-71, 3-(1-((3,5-dimethylisoxazol-4-yl)methyl)-1H-pyrazol-4-yl)-1-((6-(hydroxymethyl)pyridin-2-yl)methyl)imidazolidine-2,4-dione], the IC50 was 720 nM under setting [1] and 721 nM under setting [2].
Take `COc1ccnc(CN2CC(=O)N(c3cnn(Cc4c(C)noc4C)c3)C2=O)c1OC` [Example 10-72, 1-((3,4-dimethoxypyridin-2-yl)methyl)-3-(1-((3,5-dimethylisoxazol-4-yl)methyl)-1H-pyrazol-4-yl)imidazolidine-2,4-dione]: the IC50 is 1000 nM under setting [1] and 999 nM under setting [2].
The like results for `Cc1noc(C)c1Cn1cc(N2C(=O)CN(CC3CCCO3)C2=O)cn1` (stereo not drawn) [Example 10-73] were, in that order, 1400 nM and 1360 nM.
For the compound `Cc1noc(C)c1Cn1cc(N2C(=O)CN(CC3CCCCC3)C2=O)cn1` [Example 10-74, 1-(cyclohexylmethyl)-3-(1-((3,5-dimethylisoxazol-4-yl)methyl)-1H-pyrazol-4-yl)imidazolidine-2,4-dione], the IC50 is, setting by setting: under setting [1], 280 nM; under setting [2], 276 nM.
Turning to `COc1cccc(CN2CC(=O)N(c3cnn(Cc4c(C)noc4C)c3)C2=O)n1` [Example 10-75, 3-(1-((3,5-dimethylisoxazol-4-yl)methyl)-1H-pyrazol-4-yl)-1-((6-methoxypyridin-2-yl)methyl)imidazolidine-2,4-dione], the IC50 was 230 nM under setting [1] and 229 nM under setting [2].
On to `COc1ccc(CCN2CC(=O)N(c3cnn(Cc4c(C)noc4C)c3)C2=O)cc1` [Example 10-79, 3-(1-((3,5-dimethylisoxazol-4-yl)methyl)-1H-pyrazol-4-yl)-1-(4-methoxyphenethyl)imidazolidine-2,4-dione], for which the IC50 runs as follows: under setting [1], 40 nM; under setting [2], 44 nM.
For `Cc1noc(C)c1Cn1cc(N2C(=O)CN(CCc3cccc4ccccc34)C2=O)cn1` [Example 10-80], the IC50 under setting [1] turned out to be 1270 nM and the IC50 under setting [2] was 927 nM.
The like results for `Cc1noc(C)c1Cn1cc(N2C(=O)CN(CCc3ccccc3Cl)C2=O)cn1` [Example 10-81, 1-(2-chlorophenethyl)-3-(1-((3,5-dimethylisoxazol-4-yl)methyl)-1H-pyrazol-4-yl)imidazolidine-2,4-dione] were, in that order, 250 nM and 248 nM.
Consider `Cc1noc(C)c1Cn1cc(N2C(=O)CN(CCc3cccc(Cl)c3)C2=O)cn1` [Example 10-82, 1-(3-chlorophenethyl)-3-(1-((3,5-dimethylisoxazol-4-yl)methyl)-1H-pyrazol-4-yl)imidazolidine-2,4-dione], for which the IC50 was found to be 200 nM under setting [1] and 982 nM under setting [2].
In the case of `Cc1noc(C)c1Cn1cc(N2C(=O)CN(CCc3ccccc3F)C2=O)cn1` [Example 10-83, 3-(1-((3,5-dimethylisoxazol-4-yl)methyl)-1H-pyrazol-4-yl)-1-(2-fluorophenethyl)imidazolidine-2,4-dione], the IC50 came out at 130 nM under setting [1] and 442 nM under setting [2].
As for `Cc1noc(C)c1Cn1cc(N2C(=O)CN(CCc3ccc(F)cc3)C2=O)cn1` [Example 10-84, 3-(1-((3,5-dimethylisoxazol-4-yl)methyl)-1H-pyrazol-4-yl)-1-(4-fluorophenethyl)imidazolidine-2,4-dione], the IC50 came to 10 nM under setting [1] and 27 nM under setting [2].
Turning to `COc1cccc(CCN2CC(=O)N(c3cnn(Cc4c(C)noc4C)c3)C2=O)c1` [Example 10-85, 3-(1-((3,5-dimethylisoxazol-4-yl)methyl)-1H-pyrazol-4-yl)-1-(3-methoxyphenethyl)imidazolidine-2,4-dione], the IC50 runs as follows: under setting [1], 160 nM; under setting [2], 158 nM.
